Measured values from patent US20020183377A1 (priority 1999, published 2002).
Values joined by “and” are separate entries in the source; they are usually repeats but may differ in a detail not shown here. Equal entries are not always repeated.

Legend:
[1] = tested on: alopecia in men; conditions: cited from earlier work
[2] = tested on: postmenopausal women; conditions: unpublished data; cited from earlier work
[3] = tested on: female patients having diffuse or androgenetic, non-epulotic alopecia; test: Hair shaft measurements (diameter, breaking force, breaking distance) in the same study; format: in vivo, human; conditions: for power of resistance of hair: frontal hair
From the text: The treatment period was 6 months. […] From the hair samples obtained for the trichogram, frontally and occipitally at least 10 hairs in each case were used for the hair shaft measurements. These samples were investigated before the beginning of the preparation application and after 3 and 6 months' treatment. For the measurement of the diameter and of the mechanical properties of the hair, 5 hairs from the frontal and occipital taking region of the trichograms were in each case used. For the measurement of the force which had to be used in order to break the hair, the hairs were first stretched, by means of a computer-controlled measuring and control unit at a constant force (Newton), to breaking point. In a manner analagous to the determination of the breaking force, it was possible to determine the stretching distance up to the breaking point by means of the measuring unit. The stretching distance was measured in mm.

[4] = tested on: hair follicles of the cashmere goat; conditions: cited from earlier work
[5] = tested on: female patients having diffuse or androgenetic, non-epulotic alopecia; test: Patient questionnaire (success of therapy, side effects); format: in vivo, human
Description: Undesirable pharmaceutical side effects were determined by means of a patient questionnaire. At the end of the study, an additional termination questionnaire was filled in by the patients, in which they could express their views on the success of the therapy, on the chronological occurrence of side effects and on the administration form of the preparation.

[6] = tested on: hair follicle of goats; conditions: goats treated over 14 days, vs untreated goats; cited from earlier work
[7] = Toxicity and side effects of melatonin in humans (oral, topical); format: in vivo, human; conditions: topical application in a nanocolloid preparation and alcoholic solutions, over 60 subjects
From the text: Although the mechanisms of the action of melatonin are still not comprehensively clarified in detail, melatonin appears to control the adaptation of the organism to environmental stimuli, in particular light and temperature.

[8] = tested on: female patients having diffuse or androgenetic, non-epulotic alopecia; test: Trichograms (anagenic, telogenic, dystrophic hair rates) in randomized placebo-controlled double-blind study; format: in vivo, human; conditions: for telogenic rate, frontal trichogram / anagenic rate, frontal trichogram / anagenic rate, occipital trichogram / telogenic rate, occipital trichogram: all patients
Description: The trial was carried out as a randomized, placebo-controlled double-blind study on 40 female patients having diffuse or androgenetic, non-epulotic alopecia, who, after clarification, declared themselves willing to participate in the investigation. […] The treatment period was 6 months. […] 40 women of 20 to 70 years of age with healthy skin and good general health and having androgenetic or diffuse alopecia were tested. Care was taken that none of the women were pregnant or lactating, there was no dermatological local therapy on the scalp and no epulotic alopecia was present. Furthermore, no hair-cosmetic measures were carried out during the study. […] For the investigation of the […] telogenic rates, trichograms were prepared. In this procedure, 5 days in each case after the last hair wash 30 to 50 hairs were obtained frontally approximately 2 cm from the forehead/hair boundary and laterally from the sagittal line in a standardized manner by epilation using a special […]. A 2nd epilation was taken occipitally 2 cm laterally of the protuberantia occipitalis. The trichograms were carried out before the beginning of the study, and after 3 and 6 months' treatment. The hair roots obtained were mounted on slides, analogously counted by means of a light microscope at 20-times magnification and the percentage ratios of the […], telogenic and dystrophic hairs were calculated. All the individual data from the trichogram investigations, the hair shaft measurements and the melatonin measurements were recorded in Microsoft Excel and mean values and standard deviations were calculated. The statistical analysis of the measured values at the various points in time in the two treatment groups was carried out by the SPSS statistics program.

[9] = patients treated with melatonin
[10] = drug group, end of 6-month study
[11] = drug group, under topical treatment
[12] = drug group n=14, starting value

CC(C)(C)NC(=O)[C@H]1CC[C@H]2[C@@H]3CC[C@H]4NC(=O)C=C[C@]4(C)[C@H]3CC[C@]12C [finasteride]
cases with slight to marked improvement in the hair density [1]: 66%
cases with stopping of the hair loss [1]: 80%
efficacy compared with placebo [2]: did not show any superior efficacy compared with placebo

COc1ccc2[nH]cc(CCNC(C)=O)c2c1 [melatonin, N-acetyl-5-methoxytryptamine]
patients with enlargement of the hair diameter, hair taken frontally ([3]; drug group, diagnosis androgenetic alopecia): 67%
power of resistance of hair ([3]; after 6 months' melatonin treatment): 0.61 N
power of resistance of hair ([3]; melatonin treatment, before treatment): 0.56 N
patients with improvements of occipital hair parameters, group having diffuse alopecia ([3]; occipital hair, diffuse alopecia, melatonin): 86%
patients with enlargement of the hair diameter, hair taken occipitally [3, 9]: 55%
patients with increase in the stretching force, hair taken occipitally [3, 9]: 70%
melatonin concentration giving greater growth of the hair shafts than lower dose and control ([4]; 24 hour interval): ≥ 150 mg/mL
melatonin concentration with best growth rates and maximal total growth ([4]; after 120 hours): 300 ng/L
patients in whom the hair loss had stopped [5, 10]: 23%
patients in whom the hair loss had worsened [5, 10]: 8%
patients stating that the hair loss had improved [5, 10]: 69%
occurrence of tiredness compared with the placebo group ([5]; topical application to the scalp, 6 months): no increased occurrence of tiredness
effect on hair follicles (histology of skin biopsies) [6]: induction of hair growth by changeover of the hair follicle from the telogenic phase to the proanagenic phase
local or systemic side effects [7]: no local or systemic side effects
accumulation in the melatonin serum level (6 months' topical treatment): did not occur
melatonin plasma level versus physiological night level (not exceeded) [11]: ≤ 250 pg/ml
melatonin plasma level, individual peak values [11]: 180 pg/mL
anagenic rate, occipital trichogram, androgenetic alopecia ([8]; drug group n=6, after treatment): 87.8%
telogenic rate, occipital trichogram, androgenetic alopecia ([8]; drug group n=6, month 3): 18.3%
telogenic rate, occipital trichogram, androgenetic alopecia ([8]; drug group n=6, month 6, p≦0.035 vs starting result): 10.8%
anagenic rate, occipital trichogram, androgenetic alopecia ([8]; drug group n=6, starting value): 73.6%
telogenic rate, occipital trichogram, androgenetic alopecia ([8]; drug group n=6, starting value): 26.5%
telogenic rate, occipital trichogram, diffuse alopecia ([8]; drug group n=14, after treatment): 13.2%
anagenic rate, occipital trichogram, diffuse alopecia ([8]; drug group n=14, after treatment, p=0,02 vs placebo for increase): 83.7%
anagenic rate, occipital trichogram, diffuse alopecia [8, 12]: 77.4%
telogenic rate, occipital trichogram, diffuse alopecia [8, 12]: 21.6%
telogenic rate, frontal trichogram ([8]; drug group, after 3 months): 16.8%
telogenic rate, frontal trichogram ([8]; drug group, after 6 months): 15.9%
anagenic rate, frontal trichogram ([8]; drug group, after treatment with 0.1% melatonin spray (time not given; 6-month study)): 82.6%
anagenic rate, occipital trichogram ([8]; drug group, month 3): 78.8%
telogenic rate, occipital trichogram ([8]; drug group, month 3): 18.1%
anagenic rate, occipital trichogram ([8]; drug group, month 6, p≦0.021 vs starting result): 85%
telogenic rate, occipital trichogram ([8]; drug group, month 6, p≦0.048 vs month 3, p≦0.005 over 6 months): 12.5%
anagenic rate, occipital trichogram ([8]; drug group, starting value): 76.3%
telogenic rate, frontal trichogram ([8]; drug group, starting value): 18.9%
telogenic rate, occipital trichogram ([8]; drug group, starting value (month 1)): 23.03% and 23%
anagenic rate, frontal trichogram ([8]; drug group, starting value before therapy): 80.4%
differences in frontal anagenic and telogenic rates after 3 and 6 months compared with starting values ([8]; drug group, frontal): not significant
harmful actions of the preparation on the physiological hair root (dystrophic hair rate) ([8]; dystrophic hair always in the normal range): no harmful actions
